Measured values taken from US20240101576A1, “HETEROCYCLIC INHIBITORS OF EGFR AND/OR HER2, FOR USE IN THE TREATMENT OF CANCER” (Scorpion Therapeutics, Inc., priority 2020, published 2024).

Key:
Format in all cases: cell-based
[1] = target: T1, EGFR exon 20 NPG Ins D770_N771 (Ba/F3 cells) (Homo sapiens, UniProt P00533, INS770NPG); assay: Inhibitor activity on EGFR-dependent cell growth (CellTiter-Glo, 72 h), Ba/F3 EGFR exon 20 NPG Ins; conditions: read-out: BaF3 NPG IC50
T1 construct: expressed in transfected cells; host or cells: Ba/F3 (murine pro-B cells), retroviral transduction, puromycin selection, IL3-independent pool
How it was run: (§1)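 IC50s derive from a sigmoidal dose–response fit of CellTiter-Glo signal. The signal was normalised between […]-treated cells and cell-free medium. Ba/F3 mutant-EGFR cells, seeded at 400–800/well depending on the line, had 72 h of exposure to a 10-point, 3-fold compound series.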

[2] = target: T1, EGFR exon 20 NPG Ins D770_N771 (Ba/F3 cells); assay: Inhibitor activity on EGFR phosphorylation (pEGFR AlphaLISA, 2 h), Ba/F3 EGFR exon 20 NPG Ins
How it was run: (§2)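 After a 2-hour exposure to compound (3-fold, 10-point series from 10 mM DMSO stock), cell lysates were assayed for pEGFR by AlphaLISA. Cells were retrovirally engineered, IL3-independent Ba/F3 lines expressing each EGFR mutant at 50K/well, or CUTO14 cells at 12.5K/well, giving IC50 values.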

EGFR WT (Ba/F3 cells) = target: T2, EGFR WT (Ba/F3 cells) (Homo sapiens, UniProt P00533); assay: Inhibitor activity on EGFR-dependent cell growth (CellTiter-Glo, 72 h), Ba/F3 EGFR WT; conditions: read-out: BaF3 WT IC50
T2 construct: expressed in transfected cells; host or cells: Ba/F3 (murine pro-B cells), retroviral transduction, puromycin selection, maintained with EGF
How it was run: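 This growth assay used Ba/F3 cells that depend on wild-type EGFR and are kept in EGF without IL3. Compounds were made up as 10 mM DMSO stocks and diluted 3-fold over 10 points. 120 nL went onto 600 cells/well. After 72 hours, 40 μL CellTiter-Glo was added and luminescence read on EnVision after 30 min.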

[3] = target: EGFR exon 19del (Ba/F3 cells) (Homo sapiens, UniProt P00533); assay: Inhibitor activity on EGFR-dependent cell growth (CellTiter-Glo, 72 h), Ba/F3 EGFR exon 19del; conditions: Ba/F3 EGFR exon 19del cell growth, read-out: BaF3 Del19 IC50
Source text: (§3) Example A. Inhibitor Activity on EGFR-Dependent Cell Growth
(§4) Cell lines are generated by transducing Ba/F3 cells with retroviruses containing vectors with EGFR WT, EGFR L858R, EGFR exon 19del, EGFR L858R/C797S, EGFR exon 20 NPG Ins D770_N771, EGFR exon 20 ASV Ins V769_D770, EGFR exon 20 SVD Ins D770_N771, or EGFR exon 20 FQEA Ins A763_V764 genes and a puromycin selection marker. Transduced cells are selected with puromycin for 7 days and are then be transferred into culture media without Interleukin 3 (IL3). EGFR WT cells are maintained with supplemental EGF. Surviving cells are confirmed to express EGFR by Western blot and maintained as a pool. The IC50 date were included in Table 6 and Table 7.
(§5) 1.1 Cells are harvested from flask into cell culture medium and the cell number counted.
(§6) 1.2 Cells are diluted with culture medium to the desired density and 40 μL of cell suspension is added into each well of 384-well cell culture plate and the seeding density is 800 (FQEA, exon 19del), 600 (WT, NPG, L858R/C797S), or 400 (ASV, SVD, L858R) cells/well.
(§7) 2 Compound Preparation and Treatment
(§8) 2.1 Test compounds are dissolved to 10 mM in a DMSO stock solution. 45 μL of stock solution is transferred to a 384 polypropylene plate (pp-plate). Perform 3-fold, 10-point dilution via transferring 15 μL compound into 30 μL DMSO using a TECAN (EVO200) liquid handler.
(§9) 2.2 Spin plates at room temperature at 1,000 RPM for 1 minute.
(§10) 2.3 Transfer 120 nL of diluted compound from compound source plate into the cell plate.
(§11) 2.4 After compound treatment for 72 hours, perform CTG detection for compound treatment plates as described in “Detection” section.
(§12) 3.1 Plates are removed from incubators and equilibrated at room temperature for 15 minutes.
(§13) 3.2 Thaw the CellTiter Glo reagents and allow to equilibrate to room temperature before the experiment.
(§14) 3.3 Add 40 μL of CellTiter-Glo reagent into each well (at 1:1 to culture medium). Then place the plates at room temperature for 30 min followed by reading on EnVision.
(§15) 4.1 Inhibition activity is calculated following the formula below:
(§16) % Inhibition=100×(LumHC−LumSample)/(LumHC−LumLC) • where HC is obtained from cells treated with 0.1% DMSO only; and LC is obtained from culture medium only.
(§17) 4.2 2. Calculate the IC50 by fitting the Curve using Xlfit (v5.3.1.3), equation 201.
(§18) Y=Bottom+(Top−Bottom)/(1+10^((Log IC50−X)*HillSlope))

EGFR L858R (Ba/F3 cells) = target: T3, EGFR L858R (Ba/F3 cells) (Homo sapiens, UniProt P00533, L858R); assay: Inhibitor activity on EGFR-dependent cell growth (CellTiter-Glo, 72 h), Ba/F3 EGFR L858R; conditions: read-out: BaF3 L858R IC50
T3 construct: expressed in transfected cells; host or cells: Ba/F3 (murine pro-B cells), retroviral transduction, puromycin selection, IL3-independent pool
Source text: as §3, §4, §5, §6, §7, §8, §9, §10, §11, §12, §13, §14, §15, §16, §17, §18

[4] = target: T4, EGFR exon 20 FQEA Ins A763_V764 (Ba/F3 cells) (Homo sapiens, UniProt P00533, INS763FQEA); assay: Inhibitor activity on EGFR-dependent cell growth (CellTiter-Glo, 72 h), Ba/F3 EGFR exon 20 FQEA Ins; conditions: read-out: BaF3 FQEA IC50
T4 construct: expressed in transfected cells; host or cells: Ba/F3 (murine pro-B cells), retroviral transduction, puromycin selection, IL3-independent pool
How it was run: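 Compounds, serially diluted 3-fold over 10 points in DMSO and added at 120 nL per well, act on Ba/F3 EGFR-mutant cells for 72 h. Seeding is 800 (exon 19del, FQEA), 600 (L858R/C797S) or 400 (L858R) cells/well. CTG luminescence is fitted with a four-parameter logistic curve to give IC50.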

[5] = target: T5, EGFR exon 20 ASV Ins V769_D770 (Ba/F3 cells) (Homo sapiens, UniProt P00533, INS769ASV); assay: Inhibitor activity on EGFR-dependent cell growth (CellTiter-Glo, 72 h), Ba/F3 EGFR exon 20 ASV Ins; conditions: read-out: BaF3 ASV IC50
T5 construct: expressed in transfected cells; host or cells: Ba/F3 (murine pro-B cells), retroviral transduction, puromycin selection, IL3-independent pool
How it was run: as §1

[6] = target: T6, EGFR exon 20 SVD Ins D770_N771 (Ba/F3 cells) (Homo sapiens, UniProt P00533, INS770SVD); assay: Inhibitor activity on EGFR-dependent cell growth (CellTiter-Glo, 72 h), Ba/F3 EGFR exon 20 SVD Ins; conditions: read-out: BaF3 SVD IC50
T6 construct: expressed in transfected cells; host or cells: Ba/F3 (murine pro-B cells), retroviral transduction, puromycin selection, IL3-independent pool
How it was run: as §1

[7] = target: T5, EGFR exon 20 ASV Ins V769_D770 (Ba/F3 cells); assay: Inhibitor activity on EGFR phosphorylation (pEGFR AlphaLISA, 2 h), Ba/F3 EGFR exon 20 ASV Ins; conditions: EGFR phosphorylation, AlphaLISA, 2 hours; read-out: ASV IC50 (pEGFR)
How it was run: as §2

T6 sequence (P00533 with tags, fused parts or gaps INS770SVD): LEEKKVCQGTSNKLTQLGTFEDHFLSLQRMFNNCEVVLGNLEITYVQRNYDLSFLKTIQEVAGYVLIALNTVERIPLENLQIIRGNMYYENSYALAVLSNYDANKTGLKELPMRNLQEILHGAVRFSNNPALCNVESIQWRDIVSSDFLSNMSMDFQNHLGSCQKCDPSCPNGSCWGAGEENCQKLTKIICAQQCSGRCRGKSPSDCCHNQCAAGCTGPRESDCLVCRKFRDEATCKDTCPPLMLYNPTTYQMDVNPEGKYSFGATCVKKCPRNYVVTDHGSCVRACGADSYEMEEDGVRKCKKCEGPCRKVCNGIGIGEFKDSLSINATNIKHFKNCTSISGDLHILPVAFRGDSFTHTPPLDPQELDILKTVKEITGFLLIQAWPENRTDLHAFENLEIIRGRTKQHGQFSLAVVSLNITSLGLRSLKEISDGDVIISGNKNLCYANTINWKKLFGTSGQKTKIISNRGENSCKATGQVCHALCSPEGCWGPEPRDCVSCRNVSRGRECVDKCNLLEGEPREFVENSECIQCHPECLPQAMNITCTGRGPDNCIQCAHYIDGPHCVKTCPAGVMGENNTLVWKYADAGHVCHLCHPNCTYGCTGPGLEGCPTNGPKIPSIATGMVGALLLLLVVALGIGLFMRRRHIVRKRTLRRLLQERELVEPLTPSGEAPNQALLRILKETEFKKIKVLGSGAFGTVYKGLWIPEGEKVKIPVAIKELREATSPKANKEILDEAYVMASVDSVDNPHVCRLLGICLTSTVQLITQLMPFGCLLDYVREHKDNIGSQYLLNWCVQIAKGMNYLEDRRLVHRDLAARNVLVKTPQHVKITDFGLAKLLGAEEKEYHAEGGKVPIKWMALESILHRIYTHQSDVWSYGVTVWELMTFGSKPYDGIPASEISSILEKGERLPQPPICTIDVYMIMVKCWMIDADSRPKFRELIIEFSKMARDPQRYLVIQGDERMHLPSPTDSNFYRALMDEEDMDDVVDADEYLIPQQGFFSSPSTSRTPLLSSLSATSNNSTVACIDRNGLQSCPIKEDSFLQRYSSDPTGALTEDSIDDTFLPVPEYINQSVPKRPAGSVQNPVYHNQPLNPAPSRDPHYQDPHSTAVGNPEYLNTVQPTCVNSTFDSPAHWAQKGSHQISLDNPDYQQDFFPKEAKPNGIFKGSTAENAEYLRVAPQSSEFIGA
T3 sequence (P00533 25-1210 L858R): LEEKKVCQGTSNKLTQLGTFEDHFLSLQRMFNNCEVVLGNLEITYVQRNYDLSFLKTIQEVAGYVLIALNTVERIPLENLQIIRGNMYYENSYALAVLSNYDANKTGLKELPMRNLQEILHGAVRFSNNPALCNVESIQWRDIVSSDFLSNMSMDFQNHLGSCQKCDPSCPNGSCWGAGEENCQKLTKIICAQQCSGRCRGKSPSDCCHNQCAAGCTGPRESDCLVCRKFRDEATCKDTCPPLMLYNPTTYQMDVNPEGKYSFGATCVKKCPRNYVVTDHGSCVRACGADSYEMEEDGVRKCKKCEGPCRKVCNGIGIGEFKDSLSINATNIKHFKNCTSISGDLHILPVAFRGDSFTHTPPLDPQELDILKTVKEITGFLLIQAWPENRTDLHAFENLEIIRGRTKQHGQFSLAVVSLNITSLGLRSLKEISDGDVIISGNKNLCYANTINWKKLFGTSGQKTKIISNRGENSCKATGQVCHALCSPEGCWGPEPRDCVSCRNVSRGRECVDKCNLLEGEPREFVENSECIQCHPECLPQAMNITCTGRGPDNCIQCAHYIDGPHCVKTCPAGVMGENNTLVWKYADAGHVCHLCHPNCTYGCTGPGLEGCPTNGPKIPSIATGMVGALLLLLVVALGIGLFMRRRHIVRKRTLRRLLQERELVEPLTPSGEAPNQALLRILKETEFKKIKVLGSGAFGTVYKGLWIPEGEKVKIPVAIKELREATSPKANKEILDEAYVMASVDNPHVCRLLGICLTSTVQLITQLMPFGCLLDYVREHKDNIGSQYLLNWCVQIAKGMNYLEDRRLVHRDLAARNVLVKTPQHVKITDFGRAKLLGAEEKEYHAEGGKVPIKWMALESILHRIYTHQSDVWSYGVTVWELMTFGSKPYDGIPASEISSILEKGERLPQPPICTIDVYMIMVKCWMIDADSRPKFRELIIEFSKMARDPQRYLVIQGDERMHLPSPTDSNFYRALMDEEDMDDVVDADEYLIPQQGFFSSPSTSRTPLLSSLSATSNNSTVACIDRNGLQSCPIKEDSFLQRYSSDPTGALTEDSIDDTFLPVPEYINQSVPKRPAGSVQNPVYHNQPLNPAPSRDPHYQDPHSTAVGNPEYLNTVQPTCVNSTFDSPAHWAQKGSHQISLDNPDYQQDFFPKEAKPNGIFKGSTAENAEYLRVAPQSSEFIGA
T2 sequence (P00533 25-1210): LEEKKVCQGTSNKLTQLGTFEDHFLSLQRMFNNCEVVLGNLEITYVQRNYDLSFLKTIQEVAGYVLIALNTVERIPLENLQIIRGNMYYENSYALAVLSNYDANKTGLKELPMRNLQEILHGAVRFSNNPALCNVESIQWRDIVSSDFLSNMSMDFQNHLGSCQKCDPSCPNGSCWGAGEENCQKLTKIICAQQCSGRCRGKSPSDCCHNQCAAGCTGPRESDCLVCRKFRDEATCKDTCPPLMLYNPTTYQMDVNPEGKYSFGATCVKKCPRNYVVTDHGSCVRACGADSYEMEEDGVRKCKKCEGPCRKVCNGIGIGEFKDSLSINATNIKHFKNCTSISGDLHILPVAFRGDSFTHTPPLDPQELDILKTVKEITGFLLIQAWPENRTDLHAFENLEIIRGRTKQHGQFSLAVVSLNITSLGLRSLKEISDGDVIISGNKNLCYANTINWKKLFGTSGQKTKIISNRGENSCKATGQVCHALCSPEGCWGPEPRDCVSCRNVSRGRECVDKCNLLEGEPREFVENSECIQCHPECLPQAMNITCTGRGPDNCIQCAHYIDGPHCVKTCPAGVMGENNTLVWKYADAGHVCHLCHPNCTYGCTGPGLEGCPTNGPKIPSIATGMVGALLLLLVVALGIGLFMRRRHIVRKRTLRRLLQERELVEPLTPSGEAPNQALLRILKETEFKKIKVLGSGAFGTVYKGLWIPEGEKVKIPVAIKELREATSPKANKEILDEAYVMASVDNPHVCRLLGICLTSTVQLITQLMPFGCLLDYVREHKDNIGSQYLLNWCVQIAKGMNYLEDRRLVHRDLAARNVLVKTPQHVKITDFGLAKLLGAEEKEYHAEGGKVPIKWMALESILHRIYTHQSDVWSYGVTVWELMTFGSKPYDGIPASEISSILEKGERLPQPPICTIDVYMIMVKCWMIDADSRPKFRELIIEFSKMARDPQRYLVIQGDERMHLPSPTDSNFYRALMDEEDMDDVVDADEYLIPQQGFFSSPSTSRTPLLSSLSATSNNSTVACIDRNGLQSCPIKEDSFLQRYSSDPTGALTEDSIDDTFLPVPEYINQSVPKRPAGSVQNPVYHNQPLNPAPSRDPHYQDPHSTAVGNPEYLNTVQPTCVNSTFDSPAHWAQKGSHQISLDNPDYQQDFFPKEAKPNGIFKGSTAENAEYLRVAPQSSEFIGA
T1 sequence (P00533 with tags, fused parts or gaps INS770NPG): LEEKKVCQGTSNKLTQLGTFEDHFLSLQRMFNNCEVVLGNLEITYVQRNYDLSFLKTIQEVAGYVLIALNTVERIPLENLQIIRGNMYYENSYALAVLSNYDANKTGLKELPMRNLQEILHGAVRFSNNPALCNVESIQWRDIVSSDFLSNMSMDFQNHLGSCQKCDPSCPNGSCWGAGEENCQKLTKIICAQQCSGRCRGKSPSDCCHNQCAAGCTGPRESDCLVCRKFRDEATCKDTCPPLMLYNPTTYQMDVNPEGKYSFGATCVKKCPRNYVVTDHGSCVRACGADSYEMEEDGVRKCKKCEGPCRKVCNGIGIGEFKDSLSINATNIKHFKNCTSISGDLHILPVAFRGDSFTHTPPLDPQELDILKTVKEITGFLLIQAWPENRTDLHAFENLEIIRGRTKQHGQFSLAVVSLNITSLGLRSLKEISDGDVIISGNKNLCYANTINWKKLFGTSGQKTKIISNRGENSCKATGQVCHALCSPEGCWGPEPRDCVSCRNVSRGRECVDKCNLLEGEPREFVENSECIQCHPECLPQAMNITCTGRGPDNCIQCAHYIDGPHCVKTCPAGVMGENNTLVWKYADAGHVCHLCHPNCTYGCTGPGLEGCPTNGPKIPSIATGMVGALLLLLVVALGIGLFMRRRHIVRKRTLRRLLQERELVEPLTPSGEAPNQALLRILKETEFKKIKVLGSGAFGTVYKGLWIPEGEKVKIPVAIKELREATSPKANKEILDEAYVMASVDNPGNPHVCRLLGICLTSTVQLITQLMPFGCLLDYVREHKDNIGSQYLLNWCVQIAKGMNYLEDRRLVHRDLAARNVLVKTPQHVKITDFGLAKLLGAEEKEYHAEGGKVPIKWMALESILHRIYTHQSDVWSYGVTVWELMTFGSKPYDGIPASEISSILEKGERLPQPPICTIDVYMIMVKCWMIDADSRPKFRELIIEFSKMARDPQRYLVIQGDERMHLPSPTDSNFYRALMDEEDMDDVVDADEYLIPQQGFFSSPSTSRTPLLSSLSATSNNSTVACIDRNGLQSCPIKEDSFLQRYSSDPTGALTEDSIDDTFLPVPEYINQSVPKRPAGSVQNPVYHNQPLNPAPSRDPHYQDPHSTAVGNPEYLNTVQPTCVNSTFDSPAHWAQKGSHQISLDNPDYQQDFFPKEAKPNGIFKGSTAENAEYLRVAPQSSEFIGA

Row | Compound | IC50 [1] | IC50 [2] | IC50 (EGFR WT (Ba/F3 cells)) | IC50 [3] | IC50 (EGFR L858R (Ba/F3 cells)) | IC50 [4] | IC50 [5] | IC50 [6] | IC50 [7]
1 | COc1c(Cl)cccc1Nc1c(-c2ccnc3[nH]cnc23)[nH]c2c1C(=O)NCC2 [compound 290] | 100 to 1000 nM | < 100 nM | 100 to 1000 nM | < 100 nM | < 100 nM | < 100 nM | < 100 nM | < 100 nM | < 100 nM
2 | CC[C@@H]1CNC(=O)c2c1[nH]c(-c1ccnc(N)n1)c2Nc1cccc(Cl)c1OC [189a] | < 100 nM |  | 100 to 1000 nM | < 100 nM | < 100 nM | < 100 nM | < 100 nM | < 100 nM | 
3 | COc1ccc2nccc(-c3[nH]c4c(c3Nc3cccc(Cl)c3OC)C(=O)NC[C@H]4C)c2n1 [310a] | < 100 nM |  | < 100 nM | < 100 nM | < 100 nM | < 100 nM | < 100 nM | < 100 nM | 
4 | COc1c(Cl)cccc1Nc1c(-c2ccnc3ccc(OC4CC(F)(F)C4)nc23)[nH]c2c1C(=O)NCC2 [Compound 766, 3-[(3-chloro-2-methoxyphenyl)amino]-2-[6-(3,3-difluorocyclobutoxy)-1,5-naphthyridin-4-yl]-1H,5H,6H,7H-pyrrolo[3,2-c] pyridin-4-one] | < 100 nM |  | 100 to 1000 nM | < 100 nM | < 100 nM | < 100 nM | < 100 nM | < 100 nM | 

Now from value to compound:

Row | IC50 [1] | IC50 [2] | IC50 (EGFR WT (Ba/F3 cells)) | IC50 [3] | IC50 (EGFR L858R (Ba/F3 cells)) | IC50 [4] | IC50 [5] | IC50 [6] | IC50 [7] | Compound
5 | < 100 nM | < 100 nM | 100 to 1000 nM | < 100 nM | < 100 nM |  |  |  |  | COc1c(Cl)cccc1Nc1c(-c2ccnc(C)n2)[nH]c2c1C(=O)NC[C@H]2CC1COCCO1 (stereo in doubt) [Compound 573, (7R)-3-[(3-chloro-2-methoxyphenyl)amino]-7-[(2R)-1,4-dioxan-2-ylmethyl]-2-(2-methylpyrimidin-4-yl)-1H,5H,6H,7H-pyrrolo[3,2-c]pyridin-4-one]
6 | < 100 nM |  | < 100 nM | < 100 nM | < 100 nM | < 100 nM | < 100 nM | < 100 nM |  | COCc1ccc2nccc(-c3[nH]c4c(c3Nc3cccc(Cl)c3OC)C(=O)NCC4)c2n1 [compound 679, 3-[(3-chloro-2-methoxyphenyl)amino]-2-[6-(methoxymethyl)-1,5-naphthyridin-4-yl]-1H,5H,6H,7H-pyrrolo[3,2-c]pyridin-4-one]
